Assay results taken from ChEMBL document CHEMBL1201862, “PubChem BioAssay data set” (2004).
Active and inactive are the calls of the source.

How the values were obtained:
[1] = growth inhibition of yeast DHODH-expressing 3D7 parasites – SYBR Green, dry powder samples, dose response (AID 1159570); assay type: functional, cell-based;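 further: parasite growth measured after 72 hours of compound exposure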
[2] = P. falciparum Dd2 growth inhibitors, dose response, SYBR Green, cherry-picked samples (AID 1159567); assay type: functional, cell-based
[3] = growth inhibition of PfATP4-mutant resistant parasites – NITD609-resistant line, SYBR Green, dry powder, dose response (AID 1159571); assay type: functional, cell-based;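 further: parasites synchronized at ring stage by sorbitol before testing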
[4] = Dd2 malaria parasite growth inhibition potency – SYBR Green, dry powder samples, dose response (AID 1159566); assay type: functional, cell-based;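 further: potency for growth inhibition with lower SYBR green DNA signal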
[5] = toxicity to human HepG2 hepatoma cells – cell-based, plate reader, dry powder samples, cytotoxicity control, dose response (AID 1159569); assay type: functional;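 further: inhibitor potency with signal falling toward the positive control level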
[6] = biological target: Large T antigen (Simian virus 40, UniProt P03070); assay type: functional, Betapolyomavirus macacae;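 further: Confirmatory-stage PubChem screen for compounds that inhibit SV40 T antigen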
[7] = biological target: T1, Endoribonuclease toxin MazF (Escherichia coli K-12, UniProt P0AE70); test: substrate-only fluorescence increase artefacts – biochemical, single-stranded RNase substrate, counter-screen for MazEF activator project, dose response (AID 588502); assay type: functional
T1 sequence (P0AE70 whole entry): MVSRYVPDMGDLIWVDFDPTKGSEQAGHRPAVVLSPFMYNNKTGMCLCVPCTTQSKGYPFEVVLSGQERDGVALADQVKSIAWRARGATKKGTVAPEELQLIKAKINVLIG

[8] = biological target: T1, Endoribonuclease toxin MazF; test: activation of MazEF endoribonuclease cleavage – biochemical, fluorescence, single-stranded RNA substrate, uHTS hits, dose response (AID 588481); assay type: functional
[9] = blockers of HIV-1 envelope-mediated cell-cell fusion – cherry-pick, dose response (AID 652057); assay type: functional, cell-based
[10] = off-target signal loss in HeLa-CEM21 co-culture – HeLa F-luc CTL cells, cherry-picked, counter-screen for HIV-1 Env fusion inhibitor project, dose response (AID 652040); assay type: functional, cell-based;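 further: potency for signal decrease marking cytotoxic or nonspecific inhibition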
[11] = blockers of HIV-1 ZM109 envelope-driven cell-cell fusion – HeLa effector, CEM target cells, luciferase, cherry-pick, dose response (AID 652058); assay type: functional, cell-based;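 further: luciferase signal from HIV-1 Env mediated cell-cell fusion of effector and target cells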
[12] = HIV-1 AD8 envelope cell-cell fusion blockers – cherry-pick, dose response (AID 652062); assay type: functional, cell-based;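 further: luciferase signal from cell-cell fusion driven by HIV-1 clade B AD8 Env; potency is for inhibitors of fusion seen as a drop in luminescence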
[13] = biological target: T2, Leucine aminopeptidase (Plasmodium falciparum 3D7, UniProt Q8IL11); test: P. falciparum M17LAP inhibitors, primary screen, biochemical, fluorogenic H-Leu-NHMec substrate, 1536-well (AID 1619); assay type: functional
T2 sequence (Q8IL11 whole entry): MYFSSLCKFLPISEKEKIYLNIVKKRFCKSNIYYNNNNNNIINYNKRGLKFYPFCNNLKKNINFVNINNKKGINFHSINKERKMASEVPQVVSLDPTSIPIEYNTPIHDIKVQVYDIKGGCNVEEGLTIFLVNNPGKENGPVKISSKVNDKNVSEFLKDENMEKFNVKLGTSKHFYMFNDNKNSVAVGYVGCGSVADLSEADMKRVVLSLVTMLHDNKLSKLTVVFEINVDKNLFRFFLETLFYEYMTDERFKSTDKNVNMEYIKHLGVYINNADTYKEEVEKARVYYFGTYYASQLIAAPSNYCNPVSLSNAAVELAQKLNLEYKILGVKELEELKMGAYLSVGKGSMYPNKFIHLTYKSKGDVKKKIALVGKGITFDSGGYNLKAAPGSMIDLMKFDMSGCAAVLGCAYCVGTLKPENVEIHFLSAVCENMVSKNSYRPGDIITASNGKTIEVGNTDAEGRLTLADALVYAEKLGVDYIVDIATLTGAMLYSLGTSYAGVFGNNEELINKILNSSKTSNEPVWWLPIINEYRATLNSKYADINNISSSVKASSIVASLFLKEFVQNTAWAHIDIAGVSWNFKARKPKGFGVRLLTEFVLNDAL

[14] = biological target: Induced myeloid leukemia cell differentiation protein Mcl-1 (Homo sapiens, UniProt Q07820); assay type: functional
[15] = nonselective StAR promoter luciferase inhibitors – cell-based, luminescence, luciferase reporter, counter-screen for LRH-1 inverse agonist project, dose response (AID 651969); assay type: functional
[16] = biological target: Steroidogenic factor 1 (Homo sapiens, UniProt Q13285); test: Counterscreen for inverse agonists of the liver receptor homolog-1 (LRH-1; NR5A2): Luminescence-based cell-based high throughput dose response assay to identify inverse agonists of the Steroidogenic Factor 1 Nuclear Receptor (SF1; NR5A1).; assay type: functional
[17] = biological target: Nuclear receptor subfamily 5 group A member 2 (Homo sapiens, UniProt O00482); assay type: functional, cell-based;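 further: HEK293T cells transfected with LRH-1 and a StAR promoter luciferase reporter; potency for inhibitors that lower LRH-1 driven reporter light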
[18] = HEK-293T viability loss after treatment – luminescence, T-cell screen hits, cytotoxicity control for TCR NF-kB inhibitor project, dose response (AID 489026); assay type: functional, cell-based;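 further: cells exposed to compound about 14 hours before the viability readout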
[19] = biological target: T3, Corticotropin-releasing factor receptor 2/Corticotropin-releasing factor-binding protein (Homo sapiens, UniProt P24387+Q13324); test: activators of CRF receptor 2 with binding protein – uHTS hits, confirmation (AID 602473); assay type: functional; settings: read-out: EC50_Mean
T3 sequence (Q13324 whole entry): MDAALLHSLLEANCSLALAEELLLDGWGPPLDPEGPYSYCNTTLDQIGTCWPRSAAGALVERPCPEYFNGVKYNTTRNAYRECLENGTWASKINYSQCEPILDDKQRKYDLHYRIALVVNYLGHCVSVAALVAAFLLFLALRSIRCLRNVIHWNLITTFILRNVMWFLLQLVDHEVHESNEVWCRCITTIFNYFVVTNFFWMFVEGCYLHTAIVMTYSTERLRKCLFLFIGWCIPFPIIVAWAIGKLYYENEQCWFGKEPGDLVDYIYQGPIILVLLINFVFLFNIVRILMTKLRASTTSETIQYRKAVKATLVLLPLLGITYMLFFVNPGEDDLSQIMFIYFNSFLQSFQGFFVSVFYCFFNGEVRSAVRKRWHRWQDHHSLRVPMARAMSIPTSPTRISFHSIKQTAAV
T3 sequence (P24387 whole entry): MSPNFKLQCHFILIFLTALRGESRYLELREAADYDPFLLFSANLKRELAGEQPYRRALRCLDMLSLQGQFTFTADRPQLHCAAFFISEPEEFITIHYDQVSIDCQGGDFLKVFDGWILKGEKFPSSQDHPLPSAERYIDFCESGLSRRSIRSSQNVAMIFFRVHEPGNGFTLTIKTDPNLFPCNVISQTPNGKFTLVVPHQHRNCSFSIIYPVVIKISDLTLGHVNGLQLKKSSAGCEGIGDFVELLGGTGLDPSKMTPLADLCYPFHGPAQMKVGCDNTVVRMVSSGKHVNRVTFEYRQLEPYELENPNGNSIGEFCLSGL

[20] = intracellular Trypanosoma cruzi inhibitors in host cells – cell-based, plate reader, cherry-pick samples, set 3, dose response (AID 651818); assay type: functional;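 further: compounds incubated with infected cells for about four days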

Chain of Steroidogenic factor 1 (Q13285 whole entry): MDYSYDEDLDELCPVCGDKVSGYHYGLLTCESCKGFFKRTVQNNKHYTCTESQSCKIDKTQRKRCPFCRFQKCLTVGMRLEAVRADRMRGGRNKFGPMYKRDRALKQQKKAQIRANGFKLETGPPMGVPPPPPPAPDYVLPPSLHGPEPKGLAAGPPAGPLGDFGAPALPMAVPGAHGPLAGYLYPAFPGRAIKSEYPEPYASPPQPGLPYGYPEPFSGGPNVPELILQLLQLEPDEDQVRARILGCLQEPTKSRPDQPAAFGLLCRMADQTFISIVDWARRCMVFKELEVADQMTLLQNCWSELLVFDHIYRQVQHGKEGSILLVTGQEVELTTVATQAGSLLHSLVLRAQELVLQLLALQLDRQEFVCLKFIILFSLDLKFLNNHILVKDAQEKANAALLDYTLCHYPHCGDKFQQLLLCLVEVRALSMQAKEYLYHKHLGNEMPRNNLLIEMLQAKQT
Chain of Nuclear receptor subfamily 5 group A member 2 (O00482 whole entry): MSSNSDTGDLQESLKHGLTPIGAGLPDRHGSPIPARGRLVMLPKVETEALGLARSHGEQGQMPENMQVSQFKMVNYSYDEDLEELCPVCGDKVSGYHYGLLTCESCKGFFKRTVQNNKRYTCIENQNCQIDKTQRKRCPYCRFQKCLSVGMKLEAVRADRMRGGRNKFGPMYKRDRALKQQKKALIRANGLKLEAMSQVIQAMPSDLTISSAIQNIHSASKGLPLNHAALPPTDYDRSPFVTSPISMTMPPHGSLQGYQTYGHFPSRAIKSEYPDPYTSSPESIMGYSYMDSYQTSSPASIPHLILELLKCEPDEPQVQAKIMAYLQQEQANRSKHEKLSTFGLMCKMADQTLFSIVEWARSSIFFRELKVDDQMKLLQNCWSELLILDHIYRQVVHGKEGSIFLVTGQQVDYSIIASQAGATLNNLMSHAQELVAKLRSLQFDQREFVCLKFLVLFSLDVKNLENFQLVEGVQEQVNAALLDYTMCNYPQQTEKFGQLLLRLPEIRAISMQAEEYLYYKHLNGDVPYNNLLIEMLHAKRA
Chain of Large T antigen (P03070 whole entry): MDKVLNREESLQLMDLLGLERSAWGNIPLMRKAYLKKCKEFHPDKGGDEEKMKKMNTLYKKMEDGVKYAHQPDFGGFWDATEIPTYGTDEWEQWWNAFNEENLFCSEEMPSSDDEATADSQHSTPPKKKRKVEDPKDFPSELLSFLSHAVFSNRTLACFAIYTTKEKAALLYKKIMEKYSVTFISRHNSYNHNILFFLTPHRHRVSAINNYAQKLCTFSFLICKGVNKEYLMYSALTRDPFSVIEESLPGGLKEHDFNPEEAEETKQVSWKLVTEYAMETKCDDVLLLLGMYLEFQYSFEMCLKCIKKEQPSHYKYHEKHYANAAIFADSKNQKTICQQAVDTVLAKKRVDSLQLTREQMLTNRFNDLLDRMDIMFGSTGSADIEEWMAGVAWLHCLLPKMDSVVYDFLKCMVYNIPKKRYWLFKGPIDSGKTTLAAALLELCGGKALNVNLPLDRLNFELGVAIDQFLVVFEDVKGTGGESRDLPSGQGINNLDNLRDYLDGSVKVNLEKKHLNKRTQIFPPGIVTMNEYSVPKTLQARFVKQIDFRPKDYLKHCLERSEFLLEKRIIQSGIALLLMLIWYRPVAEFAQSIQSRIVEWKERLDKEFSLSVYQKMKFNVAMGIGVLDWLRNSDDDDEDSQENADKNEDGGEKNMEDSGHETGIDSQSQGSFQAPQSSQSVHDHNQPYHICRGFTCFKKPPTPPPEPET
Chain of Induced myeloid leukemia cell differentiation protein Mcl-1 (Q07820 whole entry): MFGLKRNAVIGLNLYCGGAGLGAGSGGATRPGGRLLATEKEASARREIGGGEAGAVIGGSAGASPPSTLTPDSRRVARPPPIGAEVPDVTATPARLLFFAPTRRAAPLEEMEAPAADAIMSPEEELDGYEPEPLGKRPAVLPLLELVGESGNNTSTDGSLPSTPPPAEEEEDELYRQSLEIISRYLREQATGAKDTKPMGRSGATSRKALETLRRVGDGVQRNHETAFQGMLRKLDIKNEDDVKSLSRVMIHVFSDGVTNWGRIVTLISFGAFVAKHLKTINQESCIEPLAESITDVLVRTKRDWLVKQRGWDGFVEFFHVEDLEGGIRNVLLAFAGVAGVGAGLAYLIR

## O=C(Nc1ccc(C(F)(F)F)cc1)N1[C@@H]2CNC[C@H]1[C@H]2c1ccc(/C=C/c2ccccc2)cc1
[1]
  AC50: 1.76 µM (active)
[2]
  AC50: 2.46 µM (active)
[3]
  AC50: 1.52 µM (active)
[4]
  AC50: 1.4 µM (active)
[5]
  AC50: 66.2 µM (active)

## O=C(c1cccc(F)c1)N1CC(=O)N2[C@H](CO)[C@H](c3ccc(-c4cccnc4)cc3)[C@H]2C1
[1]
  AC50: 0.198 µM (active)
[2]
  AC50: 0.326 µM (active)
[3]
  AC50: 0.186 µM (active)
[4]
  AC50: 0.133 µM (active)
[5]
  AC50: > 100 µM (inactive)

## CCn1c(/C=C/c2ccc(O)c(O)c2)nc2ccccc2c1=O
[6]
  IC50: 35.6 µM (active)
[7]
  EC50: 88.4 µM (inactive)
[8]
  EC50: > 99 µM (inactive)

## O=c1c2ccccc2nc(CN2CCCCCC2)n1-c1ccc(F)cc1
[9]
  AC50: 20.9 µM (active)
[10]
  AC50: 10.1 µM (active)
[11]
  AC50: 30.2 µM (active)
[12]
  AC50: 50.6 µM (active)

## Cc1ccccc1NC(=O)CSc1nc(O)cc(C)c1C#N
[13]
  IC50: 10.9 µM (active)

## CCOC(=O)c1c(NC(C)=O)sc2c(O)c(Br)cc(Br)c12
[6]
  IC50: 56.7 µM (active)
[14]
  IC50: 4.76 µM (active)

## CC(=O)Nc1ccc(NC(=O)CSc2nnc(NC(=O)C3CC3)s2)cc1
[15]
  IC50: 35.9 µM (inactive)
[16]
  IC50: 8.29 µM (active)
[17]
  IC50: 9.26 µM (active)

## COc1ccc(NC(=O)C(=O)NCC2CCCN2S(=O)(=O)c2cccs2)cc1 (configuration not stated)
[18]
  IC50: > 80 µM (inactive)
[10]
  AC50: > 70 µM (inactive)

## CC(=O)Nc1ccc(NC(=O)CSc2ccc(-c3ccc(-n4ccnc4)cc3)nn2)cc1
[15]
  IC50: 35.9 µM (inactive)
[16]
  IC50: 35.9 µM (inactive)
[17]
  IC50: 35.9 µM (inactive)

## CCCCC(=O)Nc1ccc(C(=O)Nc2ccc(OC)cc2[N+](=O)[O-])cc1
[19]
  EC50: 7.74 µM (active)
[7]
  EC50: > 99 µM (inactive)
[8]
  EC50: > 99 µM (inactive)

## COC(=O)c1ccc(Cl)c(NC(=O)CSc2nnc[nH]2)c1
[13]
  IC50: 35.1 µM (active)

## C[C@@H]1CN([C@@H](C)CO)C(=O)Cc2cc(NC(=O)Nc3ccc(C(F)(F)F)cc3)ccc2O[C@@H]1CN(C)Cc1ccc2c(c1)OCO2
[20]
  AC50: 2.01 µM (active)

## C[C@@H]1CCCCO[C@@H](CN(C)C(=O)Nc2ccc(C(F)(F)F)cc2)[C@@H](C)CN([C@H](C)CO)C(=O)c2cc(NS(=O)(=O)c3ccc(Cl)cc3)ccc2O1
[20]
  AC50: 3.05 µM (active)

## COc1ccc(NC(=O)CSc2nc(N)c(-c3ccccc3)c(O)n2)cc1
[15]
  IC50: 35.9 µM (inactive)
[16]
  IC50: 2.36 µM (active)
[17]
  IC50: 9.88 µM (active)
